System: WI38 normal fibroblasts
Experiment: Cellular imaging (quantitative videomicroscopy), global growth ratio, WI38
Type: cell-based, human
Details: 50 μM, 72 h
Source text: As the MTT test is based on the mitochondria functions, we also investigated the effects of the di- and tri-vanilloyl derivatives according to the invention on cell proliferation, migration and morphology by means of a cellular imaging approach (Debeir et al., Cytometry 60:29-40, 2004; Debeir et al., IEEE Trans Med Imaging 24:697-711, 2005) either in the human U373-MG glioma cell line, which is apoptosis-resistant but autophagy-sensitive (Lefranc F et al., Neurosurgery 2008) and in the human A549 non-small-cell-lung cancer cell line, which is apoptosis-resistant and autophagy-resistant (Mijatovic T et al., Neoplasia 2006, May; 8(5):402-12).
Investigations have also been performed in human normal fibroblasts (WS1 and WI38—see Tables 4 and 5). Cellular imaging relied on the use of computer-assisted phase-contrast microscopy making possible to film the behaviour of living cells in culture dishes for several days. […]
The behaviour of the cells, in terms of morphology, growth and death were thus investigated. The effect on the overall growth was measured by counting the number of cells on the first (0 h) and the last image (72 h) of each film. […] The ratio GGRtreated cells/GGRcontrol cells, was further calculated thereby obtaining a value that describes the effect of compounds of the present invention on the overall cell growth. […]

With COc1cc(C(=O)OCCOC(=O)c2ccc(O)c(OC)c2)ccc1O [DLT1, Ethane-1,2-diyl bis-(4-hydroxy-3-methoxybenzoate)] the “Global Grow Ratio Treated/Ct (GGR T/Ct) determined by Video Quantitative microscopy, WI38” value was 0.8.

Source: patent publication US20110280940A1, “Di-Vanilloyl And Tri-Vanilloyl Derivatives For Use In Anti-Cancer Therapy” (priority 2008, published 2011)
